Measured values from patent EP1377579B1 (Aventis Pharmaceuticals Inc., priority 2000, dated 2002).

Assays:
cdk1/cyclin B = cdk1/cyclin B (Homo sapiens, UniProt P06493); assay: Cyclin-dependent kinase assay, cdk1/cyclin B; settings: CDK1 IC50, nM, Histone H1, 10 µM ATP
MDA-MB-435 = assay: In vitro proliferation assay (MTT), MDA-MB-435; assay type: cell-based, human; settings: Homo sapiens, MDA-MB-435, MTT assay; value (SD, n) where given; read-out: MB-435 Breast (IC50 µM)
Description: (§1) The proliferation of tumor cells can be measured using a tetrazolium salt-based assay known as the MTT (3-[4,5-Dimethylthiazol-2-yl]-2,5-diphenyltetrazolium bromide) assay. […] For the assay, the cell lines are plated onto 96 well plates at 1000 to 2500 cells/well (depending on the properties of the individual cell lines), left to attach and recover overnight. […] After 3 days, the cells are incubated with MTT dye (3-[4,5-Dimethylthiazol-2-yl]-2,5-diphenyltetrazolium bromide, Sigma # M5655, 10 mg/ml in Hank's Buffered Saline) to estimate the amount of live cells remaining vs. concentration for the test compounds. […] The MTT and culture medium is then removed from the cultures and 200 µl of DMSO is added to solubilize the dye from the cell layer. The absorbance at 570 nm is determined for each culture using a Spectramax plate reader (Molecular Devices).
(§2) IC50s were determined from the raw data from either the MTT or SRB assays.
(§3) All of the cell lines were obtained from American Type Tissue Collection, with the ATCC accession number in parentheticals. MCF-7 and MDA-MB-231 cells were grown in improved minimum essential medium (Biofluids) without phenol red, supplemented with 5 % fetal bovine serum, 0.01 mg/ml gentamicin and 3 mM L-glutamine.

cdk4/cyclin D1 = cdk4/cyclin D1 (Homo sapiens, UniProt P11802); assay: Cyclin-dependent kinase assay, cdk4/cyclin D1; assay type: biochemical; settings: cyclin D1/cdk4; GST-pRb substrate, 10 µM ATP
Chain of cdk4/cyclin D1 (P11802 whole entry): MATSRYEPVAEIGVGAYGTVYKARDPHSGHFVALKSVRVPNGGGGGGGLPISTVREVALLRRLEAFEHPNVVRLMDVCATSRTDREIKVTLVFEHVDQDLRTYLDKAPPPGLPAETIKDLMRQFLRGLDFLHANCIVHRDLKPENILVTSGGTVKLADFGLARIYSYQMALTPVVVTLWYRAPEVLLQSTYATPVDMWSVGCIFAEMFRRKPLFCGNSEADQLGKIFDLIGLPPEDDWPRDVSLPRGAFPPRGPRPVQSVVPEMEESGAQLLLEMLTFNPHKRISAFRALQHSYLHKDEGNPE
Chain of cdk4/cyclin D1 (P24385 whole entry partner): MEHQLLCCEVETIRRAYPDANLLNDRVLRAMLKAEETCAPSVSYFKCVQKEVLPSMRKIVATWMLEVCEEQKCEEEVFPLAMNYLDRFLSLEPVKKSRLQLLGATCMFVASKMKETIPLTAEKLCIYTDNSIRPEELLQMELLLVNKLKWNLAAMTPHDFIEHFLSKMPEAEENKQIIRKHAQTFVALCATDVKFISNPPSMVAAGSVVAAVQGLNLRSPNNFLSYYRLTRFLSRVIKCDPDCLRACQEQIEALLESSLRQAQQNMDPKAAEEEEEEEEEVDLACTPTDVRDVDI

PC-3 = assay: In vitro proliferation assay (MTT), PC-3; assay type: cell-based, human; settings: Homo sapiens, PC-3, MTT assay; value (SD, n) where given; read-out: PC-3 Prostate (IC50 µM)
Description: as §1, §2, §3

cdk2/cyclin E = cdk2/cyclin E (Homo sapiens, UniProt P24941); assay: Cyclin-dependent kinase assay, cdk2/cyclin E; settings: CDK2 IC50, nM, GST-pRb substrate, 10 µM ATP

Chain of cdk1/cyclin B (P06493 whole entry): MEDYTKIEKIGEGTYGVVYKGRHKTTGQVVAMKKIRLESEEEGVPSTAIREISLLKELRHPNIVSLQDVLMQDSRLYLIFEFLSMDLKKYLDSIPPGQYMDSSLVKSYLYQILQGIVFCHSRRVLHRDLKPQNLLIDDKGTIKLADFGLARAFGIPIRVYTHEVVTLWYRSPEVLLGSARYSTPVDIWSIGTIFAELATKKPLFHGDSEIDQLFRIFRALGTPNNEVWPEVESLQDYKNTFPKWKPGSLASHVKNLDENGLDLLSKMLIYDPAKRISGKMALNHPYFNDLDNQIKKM
Chain of cdk1/cyclin B (P14635 whole entry partner): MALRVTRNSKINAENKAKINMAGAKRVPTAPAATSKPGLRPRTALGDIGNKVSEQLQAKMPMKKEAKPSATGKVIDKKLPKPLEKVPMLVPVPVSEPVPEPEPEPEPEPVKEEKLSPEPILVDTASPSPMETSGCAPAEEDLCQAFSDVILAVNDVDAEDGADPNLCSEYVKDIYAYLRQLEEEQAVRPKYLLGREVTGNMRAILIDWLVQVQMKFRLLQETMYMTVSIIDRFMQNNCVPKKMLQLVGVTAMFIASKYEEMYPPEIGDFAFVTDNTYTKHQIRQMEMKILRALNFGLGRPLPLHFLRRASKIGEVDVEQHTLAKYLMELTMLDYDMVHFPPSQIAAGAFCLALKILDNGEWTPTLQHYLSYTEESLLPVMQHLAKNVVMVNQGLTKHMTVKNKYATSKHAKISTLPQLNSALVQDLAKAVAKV

| Compound | IC50 (cdk1/cyclin B) [nM] | IC50 (MDA-MB-435) [µM] | IC50 (cdk4/cyclin D1) [nM] | IC50 (PC-3) [µM] | IC50 (cdk2/cyclin E) [nM] |
| --- | --- | --- | --- | --- | --- |
| COc1cc(C(=O)N2CCC(Nc3nc(N[C@H]4CC[C@H](N)CC4)nc4c3ncn4C3CCCC3)CC2)cc(OC)c1OC [compound 16, trans-1-{4-[2-(4-Amino-cyclohexylamino)-9-cyclopentyl-9H-purin-6-ylamino]-piperidin-1-yl}-1-(3,4,5-trimethoxy-phenyl)-methanone] | 43 | 8.52 | 372 | 7.91 | 83 |
| COc1cc(OC)cc(C(=O)N2CCC(Nc3nc(N[C@H]4CC[C@H](N)CC4)nc4c3ncn4C3CCCC3)CC2)c1 [compound 17, trans-1-{4-[2-(4-Amino-cyclohexylamino)-9-cyclopentyl-9H-purin-6-ylamino]-piperidin-1-yl}-1-(3,5-dimethoxy-phenyl)-methanone] | 89 | 2.22 | 467 | 1.82 | 189 |
| CCCCOc1ccc(C(=O)N2CCC(Nc3nc(N[C@H]4CC[C@H](N)CC4)nc4c3ncn4C3CCCC3)CC2)cc1 [compound 18, trans-1-{4-[2-(4-Amino-cyclohexylamino)-9-cyclopentyl-9H-purin-6-ylamino]-piperidin-1-yl}-1-(4-butoxy-phenyl)-methanone] | 506 | 2.76 | 1490 | 3.43 | 336 |
| CCCCCCCOc1ccc(C(=O)N2CCC(Nc3nc(N[C@H]4CC[C@H](N)CC4)nc4c3ncn4C3CCCC3)CC2)cc1 [compound 19, trans-1-{4-[2-(4-Amino-cyclohexylamino)-9-cyclopentyl-9H-purin-6-ylamino]-piperidin-1-yl}-1-(4-heptoxy-phenyl)-methanone] | 62 | 0.58 | 883 | 0.96 | 567 |
| CC(C)(C)c1ccc(C(=O)N2CCC(Nc3nc(N[C@H]4CC[C@H](N)CC4)nc4c3ncn4C3CCCC3)CC2)cc1 [compound 20, trans-1-{4-[2-(4-Amino-cyclohexylamino)-9-cyclopentyl-9H-purin-6-ylamino]-piperidin-1-yl}-1-(4-tert-butyl-phenyl)-methanone] | 161 | 2.25 | 682 | 1.96 | 352 |
| CCCCCc1ccc(C(=O)N2CCC(Nc3nc(N[C@H]4CC[C@H](N)CC4)nc4c3ncn4C3CCCC3)CC2)cc1 [compound 22, trans-1-{4-[2-(4-Amino-cyclohexylamino)-9-cyclopentyl-9H-purin-6-ylamino]-piperidin-1-yl}-1-(4-pentyl-phenyl)-methanone] | 182 | 1.61 | 383 | 1.86 | 571 |
| CCCCCCc1ccc(C(=O)N2CCC(Nc3nc(N[C@H]4CC[C@H](N)CC4)nc4c3ncn4C3CCCC3)CC2)cc1 [compound 23, trans-1-{4-[2-(4-Amino-cyclohexylamino)-9-cyclopentyl-9H-purin-6-ylamino]-piperidin-1-yl}-1-(4-hexyl-phenyl)-methanone] | 300 | 1.08 | 629 | 2.27 | 596 |
| N#Cc1ccc(C(=O)N2CCC(Nc3nc(N[C@H]4CC[C@H](N)CC4)nc4c3ncn4C3CCCC3)CC2)cc1 [compound 25, trans-1-{4-[2-(4-Amino-cyclohexylamino)-9-cyclopentyl-9H-purin-6-ylamino]-piperidin-1-yl}-1-(4-cyano-phenyl)-methanone] | 56 | 3.76 | 629 | 2.72 | 79 |
| N[C@H]1CC[C@H](Nc2nc(NC3CCN(C(=O)c4cccc([N+](=O)[O-])c4)CC3)c3ncn(C4CCCC4)c3n2)CC1 [compound 26, trans-1-{4-[2-(4-Amino-cyclohexylamino)-9-cyclopentyl-9H-purin-6-ylamino]-piperidin-1-yl}-1-(3-nitro-phenyl)-methanone] | 31 | 2.18 | 564 | 1.67 | 78 |
